From the supplement of paper PMC10307832

Legend:
Test in all cases: relative viability (nuclei count vs DMSO), 5 days (fraction); higher = more cells survive
Dinaciclib + Crizotinib = compound: CCc1cnn2c(NCc3ccc[n+]([O-])c3)cc(N3CCCC[C@H]3CCO)nc12 [Dinaciclib] + C[C@@H](Oc1cc(-c2cnn(C3CCNCC3)c2)cnc1N)c1c(Cl)ccc(F)c1Cl [Crizotinib] (partner 1 µM)
Procedure, shortened: (§1)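 Each reported value is a median over duplicate plates. It expresses relative viability: treated-well nuclei count divided by vehicle-well nuclei count. Lung cancer cell lines in 1536-well plates were dosed by pin tool a day after seeding, alone with one drug or with a fixed anchor-drug dose plus five library-drug doses (not always all listed) in √10 steps, and nuclei were counted after 5 days.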

Dinaciclib + Pictilisib = compound: CCc1cnn2c(NCc3ccc[n+]([O-])c3)cc(N3CCCC[C@H]3CCO)nc12 [Dinaciclib] + CS(=O)(=O)N1CCN(Cc2cc3nc(-c4cccc5[nH]ncc45)nc(N4CCOCC4)c3s2)CC1 [Pictilisib] (partner 1 µM)
Procedure, shortened: as §1

Dinaciclib + Alpelisib = compound: CCc1cnn2c(NCc3ccc[n+]([O-])c3)cc(N3CCCC[C@H]3CCO)nc12 [Dinaciclib] + Cc1nc(NC(=O)N2CCC[C@H]2C(N)=O)sc1-c1ccnc(C(C)(C)C(F)(F)F)c1 [Alpelisib] (partner 2 µM)
Procedure, shortened: as §1

Dinaciclib + Olaparib = compound: CCc1cnn2c(NCc3ccc[n+]([O-])c3)cc(N3CCCC[C@H]3CCO)nc12 [Dinaciclib] + O=C(c1cc(Cc2n[nH]c(=O)c3ccccc23)ccc1F)N1CCN(C(=O)C2CC2)CC1 [Olaparib] (partner 8 µM)
Procedure, shortened: as §1

Dinaciclib + Linsitinib = compound: CCc1cnn2c(NCc3ccc[n+]([O-])c3)cc(N3CCCC[C@H]3CCO)nc12 [Dinaciclib] + C[C@]1(O)C[C@@H](c2nc(-c3ccc4ccc(-c5ccccc5)nc4c3)c3c(N)nccn32)C1 [Linsitinib] (partner 1 µM)
Procedure, shortened: as §1

Dinaciclib + Lapatinib = compound: CCc1cnn2c(NCc3ccc[n+]([O-])c3)cc(N3CCCC[C@H]3CCO)nc12 [Dinaciclib] + CS(=O)(=O)CCNCc1ccc(-c2ccc3ncnc(Nc4ccc(OCc5cccc(F)c5)c(Cl)c4)c3c2)o1 [Lapatinib] (partner 2 µM)
Procedure, shortened: as §1

Dinaciclib + Bortezomib = compound: CCc1cnn2c(NCc3ccc[n+]([O-])c3)cc(N3CCCC[C@H]3CCO)nc12 [Dinaciclib] + CC(C)C[C@H](NC(=O)[C@H](Cc1ccccc1)NC(=O)c1cnccn1)B(O)O [Bortezomib] (partner 0.002 µM)
Procedure, shortened: as §1

Dinaciclib + Foretinib = compound: CCc1cnn2c(NCc3ccc[n+]([O-])c3)cc(N3CCCC[C@H]3CCO)nc12 [Dinaciclib] + COc1cc2c(Oc3ccc(NC(=O)C4(C(=O)Nc5ccc(F)cc5)CC4)cc3F)ccnc2cc1OCCCN1CCOCC1 [Foretinib] (partner 0.25 µM)
Procedure, shortened: as §1

Dinaciclib + Navitoclax = compound: CCc1cnn2c(NCc3ccc[n+]([O-])c3)cc(N3CCCC[C@H]3CCO)nc12 [Dinaciclib] + CC1(C)CCC(c2ccc(Cl)cc2)=C(CN2CCN(c3ccc(C(=O)NS(=O)(=O)c4ccc(N[C@H](CCN5CCOCC5)CSc5ccccc5)c(S(=O)(=O)C(F)(F)F)c4)cc3)CC2)C1 [Navitoclax] (partner 0.5 µM)
Procedure, shortened: as §1

Dinaciclib = compound: CCc1cnn2c(NCc3ccc[n+]([O-])c3)cc(N3CCCC[C@H]3CCO)nc12 [Dinaciclib]
Procedure, shortened: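 Nuclei counted with MetaXpress define viability as the ratio of treated to vehicle wells, given as a median across plates. The lung cancer cell lines were in 1536-well plates, pinned with five √10-spaced library-drug doses and imaged at 4× after 5 days and Hoechst staining. Plates passed with control CV below 25% and at least one doubling.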

Cell Line | relative viability (Dinaciclib + Crizotinib; first compound 0.009487 µM) | relative viability (Dinaciclib + Crizotinib; first compound 0.03 µM) | relative viability (Dinaciclib + Crizotinib; first compound 0.09487 µM) | relative viability (Dinaciclib + Crizotinib; first compound 0.3 µM) | relative viability (Dinaciclib + Pictilisib; first compound 0.009487 µM) | relative viability (Dinaciclib + Pictilisib; first compound 0.03 µM) | relative viability (Dinaciclib + Pictilisib; first compound 0.09487 µM) | relative viability (Dinaciclib + Pictilisib; first compound 0.3 µM) | relative viability (Dinaciclib + Alpelisib; first compound 0.009487 µM) | relative viability (Dinaciclib + Alpelisib; first compound 0.03 µM) | relative viability (Dinaciclib + Alpelisib; first compound 0.09487 µM) | relative viability (Dinaciclib + Alpelisib; first compound 0.3 µM) | relative viability (Dinaciclib + Olaparib; first compound 0.009487 µM) | relative viability (Dinaciclib + Olaparib; first compound 0.03 µM) | relative viability (Dinaciclib + Olaparib; first compound 0.09487 µM) | relative viability (Dinaciclib + Olaparib; first compound 0.3 µM) | relative viability (Dinaciclib + Linsitinib; first compound 0.009487 µM) | relative viability (Dinaciclib + Linsitinib; first compound 0.03 µM) | relative viability (Dinaciclib + Linsitinib; first compound 0.09487 µM) | relative viability (Dinaciclib + Linsitinib; first compound 0.3 µM) | relative viability (Dinaciclib + Lapatinib; first compound 0.009487 µM) | relative viability (Dinaciclib + Lapatinib; first compound 0.03 µM) | relative viability (Dinaciclib + Lapatinib; first compound 0.09487 µM) | relative viability (Dinaciclib + Lapatinib; first compound 0.3 µM) | relative viability (Dinaciclib + Bortezomib; first compound 0.009487 µM) | relative viability (Dinaciclib + Bortezomib; first compound 0.03 µM) | relative viability (Dinaciclib + Bortezomib; first compound 0.09487 µM) | relative viability (Dinaciclib + Bortezomib; first compound 0.3 µM) | relative viability (Dinaciclib + Foretinib; first compound 0.009487 µM) | relative viability (Dinaciclib + Foretinib; first compound 0.03 µM) | relative viability (Dinaciclib + Foretinib; first compound 0.09487 µM) | relative viability (Dinaciclib + Foretinib; first compound 0.3 µM) | relative viability (Dinaciclib + Navitoclax; first compound 0.009487 µM) | relative viability (Dinaciclib + Navitoclax; first compound 0.03 µM) | relative viability (Dinaciclib + Navitoclax; first compound 0.09487 µM) | relative viability (Dinaciclib + Navitoclax; first compound 0.3 µM) | relative viability (Dinaciclib; 0.009487 µM) | relative viability (Dinaciclib; 0.03 µM) | relative viability (Dinaciclib; 0.09487 µM) | relative viability (Dinaciclib; 0.3 µM)
Calu-6 | 0.619 | 0.208 | 0.0928 | 0.126 | 0.523 | 0.113 | 0.116 | 0.114 | 0.498 | 0.133 | 0.118 | 0.128 | 0.527 | 0.111 | 0.1 | 0.109 | 1.02 | 0.0954 | 0.0924 | 0.103 | 0.914 | 0.112 | 0.13 | 0.134 | 0.54 | 0.128 | 0.133 | 0.123 | 0.757 | 0.0769 | 0.0773 | 0.0929 | 0.524 | 0.0805 | 0.0782 | 0.0765 | 0.969 | 0.145 | 0.117 | 0.131
EBC-1 | 0.198 | 0.159 | 0.151 | 0.136 | 0.283 | 0.117 | 0.109 | 0.142 | 0.501 | 0.138 | 0.123 | 0.141 | 0.737 | 0.132 | 0.126 | 0.106 | 0.977 | 0.228 | 0.101 | 0.127 | 0.21 | 0.16 | 0.168 | 0.157 | 0.452 | 0.133 | 0.152 | 0.146 | 0.0927 | 0.0992 | 0.106 | 0.106 | 0.307 | 0.138 | 0.136 | 0.163 | 0.875 | 0.149 | 0.108 | 0.141
